Measurements published in ChEMBL document CHEMBL5321246, “Aurones: A Promising Scaffold to Inhibit SARS-CoV-2 Replication” (J Nat Prod, 2023).
pEC50: −log10 of the molar value.

System: SARS-CoV-2
Experiment: Antiviral activity against SARS-CoV-2 infected in Vero E6 cells assessed as inhibition of viral replication preincubated with cells for 1 hr and subsequent viral infection for 2 hrs followed by replacement with fresh medium containing compounds and measured after 24 hrs by qRT-PCR analysis
Type: functional, organism-based
Details: Severe acute respiratory syndrome coronavirus 2, Vero C1008

O=c1c(O)c(-c2cc(O)c(O)c(O)c2)oc2cc(O)cc(O)c12 [MYRICETIN]
pEC50: 5.10
